Reference: patent publication US20140171520A1, “HIGHLY SOLUBLE STEVIA SWEETENER” (priority 2011, published 2014)
Where two headings read alike, the source gives them in different places. One block for each compound: values may come before it.

Key:
[1] = cited from earlier work
[2] = Solubility in reverse osmosis (RO) water at room temperature; assay type: physicochemical; conditions: g per 100 g solvent
Protocol: Hereinafter, unless specified otherwise the solubility of material is determined in reverse osmosis (RO) water at room temperature. Where the solubility is expressed as “%” it to be understood as number of grams of material soluble in 100 grams of solvent.

[3] = at 50° C.; U.S. patent application Ser. No. 12/612,374; cited from earlier work

Compound: C=C1C[C@@]23CC[C@H]4[C@@](C)(CCC[C@@]4(C)C(=O)O[C@@H]4O[C@H](CO)[C@@H](O)[C@H](O)[C@H]4O)[C@@H]2CC[C@]1(O[C@@H]1O[C@H](CO)[C@@H](O)[C@H](O[C@@H]2O[C@H](CO)[C@@H](O)[C@H](O)[C@H]2O)[C@H]1O[C@@H]1O[C@H](CO)[C@@H](O)[C@H](O)[C@H]1O)C3 [Form 1, Rebaudioside A]
solubility among Reb A polymorph forms ([1]; Prakash et al. 2008): lowest solubility | Rate of dissolution in H2O at 25° C. ([1]; in 60 minutes): (<0.2% in

Compound: C=C1C[C@@]23CC[C@H]4[C@@](C)(CCC[C@@]4(C)C(=O)O[C@@H]4O[C@H](CO)[C@@H](O)[C@H](O)[C@H]4O)[C@@H]2CC[C@]1(O[C@@H]1O[C@H](CO)[C@@H](O)[C@H](O[C@@H]2O[C@H](CO)[C@@H](O)[C@H](O)[C@H]2O)[C@H]1O[C@@H]1O[C@H](CO)[C@@H](O)[C@H](O)[C@H]1O)C3 [Form 2, Rebaudioside A]
Rate of dissolution in H2O at 25° C. ([1]; in 5 minutes): (<30% in 5

Compound: C=C1C[C@@]23CC[C@H]4[C@@](C)(CCC[C@@]4(C)C(=O)O[C@@H]4O[C@H](CO)[C@@H](O)[C@H](O)[C@H]4O)[C@@H]2CC[C@]1(O[C@@H]1O[C@H](CO)[C@@H](O)[C@H](O[C@@H]2O[C@H](CO)[C@@H](O)[C@H](O)[C@H]2O)[C@H]1O[C@@H]1O[C@H](CO)[C@@H](O)[C@H](O)[C@H]1O)C3 [Form 3, Rebaudioside A]
Rate of dissolution in H2O at 25° C. ([1]; in 5 minutes): High (>30%

Compound: C=C1C[C@@]23CC[C@H]4[C@@](C)(CCC[C@@]4(C)C(=O)O[C@@H]4O[C@H](CO)[C@@H](O)[C@H](O)[C@H]4O)[C@@H]2CC[C@]1(O[C@@H]1O[C@H](CO)[C@@H](O)[C@H](O[C@@H]2O[C@H](CO)[C@@H](O)[C@H](O)[C@H]2O)[C@H]1O[C@@H]1O[C@H](CO)[C@@H](O)[C@H](O)[C@H]1O)C3 [Form 4, Rebaudioside A]
Rate of dissolution in H2O at 25° C. ([1]; in 5 minutes): High (>35%

water solubility [2]: > 5% | water solubility ([2]; listed as rebaudioside A): 5.5%
Compound: C=C1C[C@@]23CC[C@H]4[C@@](C)(CCC[C@@]4(C)C(=O)O[C@@H]4O[C@H](CO)[C@@H](O)[C@H](O)[C@H]4O)[C@@H]2CC[C@]1(O[C@@H]1O[C@H](CO)[C@@H](O)[C@H](O[C@@H]2O[C@H](CO)[C@@H](O)[C@H](O)[C@H]2O)[C@H]1O[C@@H]1O[C@H](CO)[C@@H](O)[C@H](O)[C@H]1O)C3 [Reb A, Rebaudioside A]

Compound: C=C1C[C@@]23CC[C@H]4[C@@](C)(CCC[C@@]4(C)C(=O)O[C@@H]4O[C@H](CO)[C@@H](O)[C@H](O)[C@H]4O[C@@H]4O[C@H](CO)[C@@H](O)[C@H](O)[C@H]4O)[C@@H]2CC[C@]1(O[C@@H]1O[C@H](CO)[C@@H](O)[C@H](O[C@@H]2O[C@H](CO)[C@@H](O)[C@H](O)[C@H]2O)[C@H]1O[C@@H]1O[C@H](CO)[C@@H](O)[C@H](O)[C@H]1O)C3 [anhydrous form of Reb D, Rebaudioside D, reference compound]
solubility [3]: about 0.15%

water solubility [2]: 0.01%
Compound: Rebaudioside B [Reb B]
